The numbers were not newly measured in patent US6617154B1, “Electroporation chamber including an electrode having a continuous, crystalline metal nitride coating” (MaxCyte, Inc., priority 1996, dated 2003), which cites them from elsewhere.

Structures are written as SMILES. Bounds are passed on as bounds.

For data set [1] the following is noted: experimental animals; DPG or its precursors.
In data set [2] the target is T1, hemoglobin (Homo sapiens, UniProt P68871). To be noted: relative to DPG.
In data set [3] the target is T1, hemoglobin. The settings on record: pH 7.4, 37 degrees C.
For data set [4] the following is noted: under ordinary circumstances, not bound to hemoglobin.
In data set [5] the test system is mammalian erythrocyte membrane.

T1 sequence (P68871 2-147 limits assumed): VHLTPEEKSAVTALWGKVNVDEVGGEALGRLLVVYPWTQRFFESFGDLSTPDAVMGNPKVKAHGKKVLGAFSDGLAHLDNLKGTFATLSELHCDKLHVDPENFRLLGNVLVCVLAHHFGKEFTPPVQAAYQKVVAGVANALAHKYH
T1 sequence (P69905 2-142 partner limits assumed): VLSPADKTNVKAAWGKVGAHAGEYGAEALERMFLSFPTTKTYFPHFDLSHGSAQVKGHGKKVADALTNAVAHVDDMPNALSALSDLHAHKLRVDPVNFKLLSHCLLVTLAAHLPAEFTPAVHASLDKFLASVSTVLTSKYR

As for `O=C(O)C(COP(=O)(O)O)OP(=O)(O)O` (centres unmarked) [DPG, 2,3-diphosphoglycerate], in data set [1], the “duration of transient elevation of oxygen deposition” value is 6 to 12 h.

On to `O=P(O)(O)O[C@H]1[C@H](OP(=O)(O)O)[C@@H](OP(=O)(O)O)[C@H](OP(=O)(O)O)[C@@H](OP(=O)(O)O)[C@H]1OP(=O)(O)O` [IHP, inositol hexaphosphate], for which, in data set [2], the “affinity to hemoglobin, higher than DPG” value was 1000 fold. The P50 of hemoglobin in data set [3] is ≤ 96.4 mm Hg. Besides, the toxicity entry in data set [4] is reported as “toxic”. In data set [5], the “passage through the mammalian erythrocyte membrane” value is given as “unable to pass”.
